# Reference: ChEMBL document CHEMBL4130413, “1-Aryl-1H- and 2-aryl-2H-1,2,3-triazole derivatives blockade P2X7 receptor in vitro and inflammatory response in vivo” (Eur J Med Chem, 2017)
# The source made the active and inactive calls. No cut-off for these calls is given here.
# How the values were obtained:
# Mus musculus [1] = test: Anti-inflammatory activity in Swiss mouse assessed as inhibition of LPS-induced pleural accumulation in total leucocytes at 100 mg/kg, ip pretreated for 1 hr followed by LPS stimulation and measured after 24 hrs by May-Grunwald-Giemsa staining-based Neubauer chamber based optical microscopy; type: functional, organism-based
# Mus musculus [2] = test: Anti-inflammatory activity in Swiss mouse assessed as inhibition of LPS-induced pleural accumulation in neutrophils cells at 100 mg/kg, ip pretreated for 1 hr followed by LPS stimulation and measured after 24 hrs by May-Grunwald-Giemsa staining-based Neubauer chamber based optical microscopy; type: functional, organism-based
# Mus musculus [3] = test: Anti-inflammatory activity in Swiss mouse assessed as inhibition of LPS-induced nitric oxide production in pleural washes at 100 ng/kg, ip pretreated for 1 hr followed by LPS stimulation measured after 24 hrs by Lowry/Griess analysis; type: functional, organism-based
# Mus musculus [4] = test: Anti-inflammatory activity in Swiss mouse assessed as inhibition of LPS-induced nitric oxide production in pleural washes at 100 mg/kg, ip pretreated for 1 hr followed by LPS stimulation and measured after 24 hrs by Lowry/Griess analysis; type: functional, organism-based
# [5] = target: T1, P2X purinoceptor 7 (Mus musculus) (UniProt Q9Z1M0); test: (§1) Antagonist activity at P2X7 receptor in Swiss mouse peritoneal macrophages assessed as inhibition of ATP-induced propidium iodide uptake after 25 mins by flow cytometric analysis
# T1 sequence (whole entry): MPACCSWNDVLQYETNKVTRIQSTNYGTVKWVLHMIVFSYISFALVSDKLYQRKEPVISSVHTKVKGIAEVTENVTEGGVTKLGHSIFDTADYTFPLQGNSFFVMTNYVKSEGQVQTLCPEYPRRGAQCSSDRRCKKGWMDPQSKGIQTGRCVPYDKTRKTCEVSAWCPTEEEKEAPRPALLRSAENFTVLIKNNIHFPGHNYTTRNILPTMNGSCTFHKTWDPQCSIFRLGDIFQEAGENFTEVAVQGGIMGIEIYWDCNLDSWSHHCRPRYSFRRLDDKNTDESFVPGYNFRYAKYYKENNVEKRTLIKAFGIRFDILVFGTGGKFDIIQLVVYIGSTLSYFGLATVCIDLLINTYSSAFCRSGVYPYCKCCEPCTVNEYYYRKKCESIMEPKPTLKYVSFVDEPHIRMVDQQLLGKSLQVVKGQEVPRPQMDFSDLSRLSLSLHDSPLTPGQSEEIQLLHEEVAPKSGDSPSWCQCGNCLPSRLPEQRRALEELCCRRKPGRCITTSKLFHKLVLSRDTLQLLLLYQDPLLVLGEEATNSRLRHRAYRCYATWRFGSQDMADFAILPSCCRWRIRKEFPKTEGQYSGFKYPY
# P2X purinoceptor 7 [6] = target: T2, P2X purinoceptor 7 (Mus musculus, UniProt Q9Z1M0); test: as §1
# T2 sequence (Q9Z1M0 whole entry): T1 sequence (whole entry)
# P2X purinoceptor 7 [7] = target: T2, P2X purinoceptor 7; test: Antagonist activity at P2X7 receptor in Swiss mouse peritoneal macrophages assessed as inhibition of ATP-induced current at holding potential of -60 mV preincubated for 5 mins followed by ATP addition measured after 5 mins by Whole cell patch-clamp analysis
# P2X purinoceptor 7 [8] = target: T3, P2X purinoceptor 7 (Homo sapiens, UniProt Q99572); test: Antagonist activity at human P2X7 receptor expressed in HEK293 cells assessed as inhibition of ATP-induced ethidium iodide uptake preincubated for 10 mins followed by ATP addition measured after 20 mins by spectrofluorometric analysis; type: cell-based
# T3 sequence (Q99572 whole entry): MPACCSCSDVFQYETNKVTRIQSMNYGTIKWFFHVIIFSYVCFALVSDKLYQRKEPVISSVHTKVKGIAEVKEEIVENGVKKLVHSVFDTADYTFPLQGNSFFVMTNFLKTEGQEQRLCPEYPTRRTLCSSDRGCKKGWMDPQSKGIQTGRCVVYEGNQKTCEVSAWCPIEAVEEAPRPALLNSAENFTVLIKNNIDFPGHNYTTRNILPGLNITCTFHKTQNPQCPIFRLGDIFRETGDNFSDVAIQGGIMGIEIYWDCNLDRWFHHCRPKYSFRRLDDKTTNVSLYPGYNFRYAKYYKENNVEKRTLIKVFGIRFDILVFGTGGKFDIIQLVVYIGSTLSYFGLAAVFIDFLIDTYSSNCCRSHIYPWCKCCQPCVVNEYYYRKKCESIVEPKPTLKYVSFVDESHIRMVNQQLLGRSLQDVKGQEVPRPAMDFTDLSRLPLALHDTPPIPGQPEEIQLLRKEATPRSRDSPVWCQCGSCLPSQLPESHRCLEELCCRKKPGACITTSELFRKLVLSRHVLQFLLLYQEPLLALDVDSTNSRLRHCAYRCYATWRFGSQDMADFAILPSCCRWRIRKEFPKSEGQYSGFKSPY
# P2X purinoceptor 7 [9] = target: T2, P2X purinoceptor 7; test: Antagonist activity at P2X7 receptor in Swiss mouse peritoneal macrophages assessed as inhibition of BzATP-induced current at holding potential of -60 mV preincubated for 5 mins followed by BzATP addition measured after 5 mins by Whole cell patch-clamp analysis
# [10] = target: T4, P2X purinoceptor 7 (Homo sapiens) (UniProt Q99572); test: (§2) Antagonist activity at P2X7 receptor in LPS/IFNc-differentiated human THP-1 cells assessed as inhibition of ATP-induced IL-1beta release preincubated for 30 mins followed by LPS stimulation for 4 hrs using cells treated with ATP for 30 mins by ELISA; type: cell-based
# T4 sequence (whole entry): T3 sequence (Q99572 whole entry)
# P2X purinoceptor 7 [11] = target: T3, P2X purinoceptor 7; test: as §2; type: cell-based
# [12] = Kinetic solubility in pH 4 citrate buffer at 1 to 250 uM after 2 hrs; type: physicochemical; settings: read-out: Kinetic_solubility
# [13] = Kinetic solubility in pH 10 sodium hydroxide buffer at 1 to 250 uM after 2 hrs; type: physicochemical; settings: read-out: Kinetic_solubility
# Mus musculus [14] = test: Anti-inflammatory activity in po dosed Swiss Webster mouse assessed as inhibition of ATP-induced paw edema pretreated for 60 mins followed by ATP administration and measured after 30 mins; type: functional
# Mus musculus [15] = test: Anti-inflammatory activity in po dosed Swiss Webster mouse assessed as inhibition of carrageenan-induced paw edema pretreated for 60 mins followed by carrageenan administration and measured after 60 mins; type: functional
# Mus musculus [16] = test: Anti-inflammatory activity in Swiss mouse assessed as inhibition of LPS-induced pleural accumulation in eosinophils at 1 to 100 ng/kg, ip pretreated for 1 hr followed by LPS stimulation and measured after 24 hrs by May-Grunwald-Giemsa staining-based Neubauer chamber based optical microscopy; type: functional, organism-based
# Mus musculus [17] = test: Anti-inflammatory activity in Swiss mouse assessed as inhibition of LPS-induced protein extravasation in thoracic cavity at 100 ng/kg, ip pretreated for 1 hr followed by LPS stimulation and measured after 24 hrs; type: functional, organism-based
# P2X purinoceptor 7 [18] = target: T3, P2X purinoceptor 7; test: Antagonist activity at human P2X7 receptor in PMA-differentiated THP-1 macrophages assessed as inhibition of ATP-induced IL-1beta release preincubated for 30 mins followed by ATP addition measured after 30 mins by ELISA
inhibition [5],IC50 (P2X purinoceptor 7 [6]),IC50 (P2X purinoceptor 7 [7]),IC50 (P2X purinoceptor 7 [8]),IC50 (P2X purinoceptor 7 [9]),Activity [10],IC50 (P2X purinoceptor 7 [11]),solubility kinetic at 2 h [12],solubility kinetic at 2 h [13],IC50 (P2X purinoceptor 7 [18]),Compound,Activity (Mus musculus [1]),Activity (Mus musculus [2]),Activity (Mus musculus [3]),Activity (Mus musculus [4]),ID50 (Mus musculus [14]),ID50 (Mus musculus [15]),Activity (Mus musculus [16]),Activity (Mus musculus [17])
–,–,–,–,–,–,–,–,–,–,O=C(O)Cc1ccccc1Nc1c(Cl)cccc1Cl [DICLOFENAC],Active,inactive,inactive,inactive,–,–,–,–
Dose-dependent effect,83 nM,69 nM,5.3 nM,41.1 nM,Dose-dependent effect,67.5 nM,< 250 µM,< 250 µM,67 nM,CCOCc1cn(-c2ccc(Cl)cc2)nn1,–,–,–,–,0.06859 µg/kg,0.08049 µg/kg,inactive,Active
